Assay results reported in patent US8377949B2, “Quinazolinedione chymase inhibitors” (Boehringer Ingelheim International GmbH, priority 2007, dated 2013).
Where “and” joins values, the source holds several entries; their conditions need not be identical. Identical values can stand only once.

molecular target: T1, Chymase (Homo sapiens, UniProt P23946); test: In vitro Assay for Inhibition of Chymase; assay type: biochemical; settings: 500 pM chymase, 100 nM rhodamine 110 peptide substrate, 1 hour at 28° C., fluorescence
T1 sequence (P23946 22-247): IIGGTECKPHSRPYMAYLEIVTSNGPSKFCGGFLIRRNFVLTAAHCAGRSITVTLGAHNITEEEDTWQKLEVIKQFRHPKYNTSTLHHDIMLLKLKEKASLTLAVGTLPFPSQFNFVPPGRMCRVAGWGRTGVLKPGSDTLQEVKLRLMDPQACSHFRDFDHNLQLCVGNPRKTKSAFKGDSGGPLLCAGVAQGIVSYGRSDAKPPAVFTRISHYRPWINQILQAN
Experimental: In vitro Assay for Inhibition of Chymase
Chymase assays were performed in a total volume of 15 μL in Corning black opaque 384-well microtiter plates with a non-binding surface (Coming, N.Y.). The assay buffer was comprised of 20 mM Tris HCl pH 8.0, 50 mM NaCl, 0.01% CHAPS. The test compounds were serially diluted 3-fold with neat DMSO in a 96-well polypropylene plate from a 10 mM DMSO stock to give the 10 point dose response curve. 3 μL of the resulting DMSO solution were transferred to a 384-well polypropylene plate in duplicate, and 37 μL of assay buffer was added. Chymase was added to the assay plate in 3 uL of assay buffer followed by 2 uL of the appropriate compound dilution using a PlateMate Plus (Matrix Technologies Corp., Hudson, N.H.). The reaction was initiated by the addition of 10 uL rhodamine 110, bis-(succinoyl-L-alanyl-L-alanyl-L-prolyl-L-phenylalanylamide) (American Peptides, Sunnyvale, Calif.) in assay buffer containing 150 μM tris(2-carboxyethyl)phosphine (TCEP, Pierce Chemical, Rockford, Ill.) using a Multidrop (Thermo Electron Corp., Waltham, Mass.). Final assay concentrations were 500 pM chymase, 100 nM substrate, 100 μM TCEP, and 1% DMSO. The plates were incubated at 28° C. and 80% humidity for 1 hour, at which time the fluorescence was read on a Viewlux 1430 Microplate Imager (Perkin Elmer Life Sciences, Boston, Mass.) with 485 nm excitation, 530 nm emission, and a fluorescein dichroic mirror. The percentage of control values were calculated relative to assay blanks containing complete reaction minus chymase and a 100% control containing assay buffer with 1% DMSO in place of compound. IC50 values were obtained by fitting the data using XLFit4 (IDBS Software).

Structure (SMILES)	IC50
Cc1cccc2c1c(Cn1c(=O)n(CC3(C(=O)O)CCCCC3)c(=O)c3ccccc31)cn2C [1-[1-(1,4-Dimethyl-1H-indol-3-ylmethyl)-2,4-dioxo-1,4-dihydro-2H-quinazolin-3-ylmethyl]-cyclohexanecarboxylic acid]	3 nM
CCC(C(=O)O)n1c(=O)c2ccccc2n(Cc2cn(C)c3cccc(C)c23)c1=O (stereo not shown) [2-[1-(1,4-Dimethyl-1H-indol-3-ylmethyl)-2,4-dioxo-1,4-dihydro-2H-quinazolin-3-yl]-butyric acid]	4 nM
CCCCC(C(=O)O)n1c(=O)c2ccccc2n(Cc2cn(C)c3cccc(C)c23)c1=O (stereo not shown) [2-[1-(1,4-Dimethyl-1H-indol-3-ylmethyl)-2,4-dioxo-1,4-dihydro-2H-quinazolin-3-yl]-hexanoic acid]	3 nM
CCCC(C(=O)O)n1c(=O)c2ccccc2n(Cc2cn(C)c3cccc(C)c23)c1=O (stereo not shown) [2-[1-(1,4-Dimethyl-1H-indol-3-ylmethyl)-2,4-dioxo-1,4-dihydro-2H-quinazolin-3-yl]-pentanoic acid]	4 nM
CCCCC(CC(=O)O)n1c(=O)c2ccccc2n(Cc2cn(C)c3cccc(C)c23)c1=O (stereo not shown) [3-[1-(1,4-Dimethyl-1H-indol-3-ylmethyl)-2,4-dioxo-1,4-dihydro-2H-quinazolin-3-yl]-heptanoic acid]	4 nM
CCC(CC(=O)O)n1c(=O)c2ccccc2n(Cc2nsc3cc(C)cc(C)c23)c1=O (stereo not shown) [3-[1-(4,6-Dimethyl-1,2-benzisothiazol-3-ylmethyl)-2,4-dioxo-1,4-dihydro-2H-quinazolin-3-yl]-pentanoic acid]	2 nM
Cc1cccc2c1c(Cn1c(=O)n(CC(CC(=O)O)c3ccccc3)c(=O)c3ccccc31)cn2C (stereo not shown) [4-[1-(1,4-Dimethyl-1H-indol-3-ylmethyl)-2,4-dioxo-1,4-dihydro-2H-quinazolin-3-yl]-3-phenyl-butyric acid]	3 nM
CC[C@H](C(=O)O)n1c(=O)c2ccccc2n(Cc2cn(C)c3cccc(C)c23)c1=O [(R)-2-[1-(1,4-Dimethyl-1H-indol-3-ylmethyl)-2,4-dioxo-1,4-dihydro-2H-quinazolin-3-yl]-butyric acid]	1.4 nM
CCCC[C@H](C(=O)O)n1c(=O)c2ccccc2n(Cc2cn(C)c3cccc(C)c23)c1=O [(R)-2-[1-(1,4-Dimethyl-1H-indol-3-ylmethyl)-2,4-dioxo-1,4-dihydro-2H-quinazolin-3-yl]-hexanoic acid]	3 nM and 0.8 nM
Cc1cccc2c1c(Cn1c(=O)n([C@H](C)C(=O)O)c(=O)c3ccccc31)cn2C [(R)-2-[1-(1,4-Dimethyl-1H-indol-3-ylmethyl)-2,4-dioxo-1,4-dihydro-2H-quinazolin-3-yl]-propionic acid]	1.9 nM
CCCC[C@H](C(=O)O)n1c(=O)c2cc(OC)ccc2n(Cc2cn(C)c3cccc(C)c23)c1=O [(R)-2-[1-(1,4-Dimethyl-1H-indol-3-ylmethyl)-6-methoxy-2,4-dioxo-1,4-dihydro-2H-quinazolin-3-yl]-hexanoic acid]	1.6 nM
CCCC[C@H](C(=O)O)n1c(=O)c2ccccc2n(Cc2nsc3cc(C)cc(C)c23)c1=O [(R)-2-[1-(4,6-Dimethyl-1,2-benzisothiazol-3-ylmethyl)-2,4-dioxo-1,4-dihydro-2H-quinazolin-3-yl]-hexanoic acid]	3 nM
CCC[C@H](C(=O)O)n1c(=O)c2ccccc2n(Cc2cn(C)c3cc(C)cc(C)c23)c1=O [(R)-2-[2,4-Dioxo-1-(1,4,6-trimethyl-1H-indol-3-ylmethyl)-1,4-dihydro-2H-quinazolin-3-yl]-pentanoic acid]	0.27 nM
Cc1cccc2c1c(Cn1c(=O)n([C@H](CC(=O)O)c3ccccc3)c(=O)c3ccccc31)cn2C [(R)-3-[1-(1,4-Dimethyl-1H-indol-3-ylmethyl)-2,4-dioxo-1,4-dihydro-2H-quinazolin-3-yl]-3-phenyl-propionic acid]	1 nM
CC[C@H](CC(=O)O)n1c(=O)c2ccccc2n(Cc2cn(C)c3cccc(C)c23)c1=O [(R)-3-[1-(1,4-Dimethyl-1H-indol-3-ylmethyl)-2,4-dioxo-1,4-dihydro-2H-quinazolin-3-yl]-pentanoic acid]	3.9 nM
Cc1cccc2c1c(Cn1c(=O)n([C@@H](C(=O)O)c3ccccc3)c(=O)c3ccccc31)cn2C [(R)-[1-(1,4-Dimethyl-1H-indol-3-ylmethyl)-2,4-dioxo-1,4-dihydro-2H-quinazolin-3-yl]-phenyl-acetic acid]	1 nM

Structure (SMILES)	IC50
Cc1cc(C)c2c(Cn3c(=O)n([C@@H](C(=O)O)c4ccccc4)c(=O)c4ccccc43)nsc2c1 [(R)-[1-(4,6-Dimethyl-1,2-benzisothiazol-3-ylmethyl)-2,4-dioxo-1,4-dihydro-2H-quinazolin-3-yl]-phenyl-acetic acid]	1.8 nM
CC[C@@H](C(=O)O)n1c(=O)c2ccccc2n(Cc2cn(C)c3cccc(C)c23)c1=O [(S)-2-[1-(1,4-Dimethyl-1H-indol-3-ylmethyl)-2,4-dioxo-1,4-dihydro-2H-quinazolin-3-yl]-butyric acid]	1.7 nM
CCCC[C@@H](C(=O)O)n1c(=O)c2ccccc2n(Cc2cn(C)c3cccc(C)c23)c1=O [(S)-2-[1-(1,4-Dimethyl-1H-indol-3-ylmethyl)-2,4-dioxo-1,4-dihydro-2H-quinazolin-3-yl]-hexanoic acid]	2 nM
CCC[C@@H](C(=O)O)n1c(=O)c2ccccc2n(Cc2cn(C)c3cccc(C)c23)c1=O [(S)-2-[1-(1,4-Dimethyl-1H-indol-3-ylmethyl)-2,4-dioxo-1,4-dihydro-2H-quinazolin-3-yl]-pentanoic acid]	1.5 nM
Cc1cccc2c1c(Cn1c(=O)n([C@@H](C)C(=O)O)c(=O)c3ccccc31)cn2C [(S)-2-[1-(1,4-Dimethyl-1H-indol-3-ylmethyl)-2,4-dioxo-1,4-dihydro-2H-quinazolin-3-yl]-propionic acid]	2.5 nM
CCCC[C@@H](C(=O)O)n1c(=O)c2cc(OC)ccc2n(Cc2cn(C)c3cccc(C)c23)c1=O [(S)-2-[1-(1,4-Dimethyl-1H-indol-3-ylmethyl)-6-methoxy-2,4-dioxo-1,4-dihydro-2H-quinazolin-3-yl]-hexanoic acid]	2.6 nM
CCCC[C@@H](C(=O)O)n1c(=O)c2ccc(OC)cc2n(Cc2cn(C)c3cccc(C)c23)c1=O [(S)-2-[1-(1,4-Dimethyl-1H-indol-3-ylmethyl)-7-methoxy-2,4-dioxo-1,4-dihydro-2H-quinazolin-3-yl]-hexanoic acid]	4.9 nM
CCCC[C@@H](C(=O)O)n1c(=O)c2cc(OC)ccc2n(Cc2nsc3cc(C)cc(C)c23)c1=O [(S)-2-[1-(4,6-Dimethyl-1,2-benzisothiazol-3-ylmethyl)-6-methoxy-2,4-dioxo-1,4-dihydro-2H-quinazolin-3-yl]-hexanoic acid]	1.8 nM
CC[C@@H](CC(=O)O)n1c(=O)c2ccccc2n(Cc2cn(C)c3cccc(C)c23)c1=O [(S)-3-[1-(1,4-Dimethyl-1H-indol-3-ylmethyl)-2,4-dioxo-1,4-dihydro-2H-quinazolin-3-yl]-pentanoic acid]	3.2 nM
CC[C@@H](CC(=O)O)n1c(=O)c2ccccc2n(Cc2nsc3cc(C)cc(C)c23)c1=O [(S)-3-[1-(4,6-Dimethyl-benzo[d]isothiazol-3-ylmethyl)-2,4-dioxo-1,4-dihydro-2H-quinazolin-3-yl]-pentanoic acid]	3.7 nM
Cc1cc(C)c2c(Cn3c(=O)n([C@H](C(=O)O)c4ccc(Cl)cc4)c(=O)c4ccccc43)nsc2c1 [(S)-(4-Chloro-phenyl)-[1-(4,6-dimethyl-1,2-benzisothiazol-3-ylmethyl)-2,4-dioxo-1,4-dihydro-2H-quinazolin-3-yl]-acetic acid]	0.92 nM
Cc1cccc2c1c(Cn1c(=O)n([C@H](C(=O)O)c3ccccc3)c(=O)c3ccccc31)cn2C [(S)-[1-(1,4-Dimethyl-1H-indol-3-ylmethyl)-2,4-dioxo-1,4-dihydro-2H-quinazolin-3-yl]-phenyl-acetic acid]	2 nM
Cc1cc(C)c2c(Cn3c(=O)n([C@H](C(=O)O)c4ccccc4)c(=O)c4ccccc43)nsc2c1 [(S)-[1-(4,6-Dimethyl-1,2-benzisothiazol-3-ylmethyl)-2,4-dioxo-1,4-dihydro-2H-quinazolin-3-yl]-phenyl-acetic acid]	1 nM
Cc1cccc2c1c(Cn1c(=O)n(C3(CC(=O)O)CCCCC3)c(=O)c3ccccc31)cn2C [{1-[1-(1,4-Dimethyl-1H-indol-3-ylmethyl)-2,4-dioxo-1,4-dihydro-2H-quinazolin-3-yl]-cyclohexyl}-acetic acid]	3 nM
Cc1cccc2c1c(Cn1c(=O)n(CC3(CC(=O)O)CCCCC3)c(=O)c3ccccc31)cn2C [{1-[1-(1,4-Dimethyl-1H-indol-3-ylmethyl)-2,4-dioxo-1,4-dihydro-2H-quinazolin-3-ylmethyl]-cyclohexyl}-acetic acid]	3 nM
